The values that follow come from patent US9828396B2, “Alkyne compounds for treatment of complement mediated disorders” (Achillion Pharmaceuticals, Inc., priority 2014, dated 2017).

Bounds are passed on as bounds.

The target in the assay is Human factor D (Homo sapiens (Human), UniProt P00746). Nature of the assay: Human Factor D Assay. The class given is biochemical. Conditions: Human factor D 80 nM, substrate Z-L-Lys-SBzl, assay of Example 12. The protocol: Example 12. Human Factor D Assay
Human factor D, sequence (P00746 26-253): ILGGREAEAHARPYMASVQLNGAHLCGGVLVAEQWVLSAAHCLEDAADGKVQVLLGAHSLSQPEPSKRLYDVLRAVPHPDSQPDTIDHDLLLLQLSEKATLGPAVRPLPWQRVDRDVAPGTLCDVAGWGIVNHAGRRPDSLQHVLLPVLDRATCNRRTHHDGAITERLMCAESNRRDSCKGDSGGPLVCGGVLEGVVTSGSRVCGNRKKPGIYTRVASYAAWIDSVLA
Human factor D (purified from human serum, Complement Technology, Inc.) at 80 nM final concentration is incubated with test compound at various concentrations for 5 minutes at room temperature in 50 mM Tris, 1M NaCl, pH 7.5. A synthetic substrate Z-L-Lys-SBzl and DTNB (Ellman's reagent) are added to final concentrations of 100 μM each. The increase in color is recorded at OD405 nm in a microplate in kinetic mode over 30 minutes with 30 second time points in a spectrofluorimeter. IC50 values are calculated by non-linear regression from the percentage of inhibition of complement factor D activity as a function of test compound concentration.
`NC(=O)c1nn(CC(=O)N2[C@@H]3CC(F)(F)[C@@H]3C[C@H]2C(=O)NCc2cccc(Cl)c2F)c2ccc(C#Cc3ncccn3)cc12` [Compound 51, 1-(2-((1R,3S,5R)-3-(3-chloro-2-fluorobenzylcarbamoyl)-6,6-difluoro-2-azabicyclo[3.2.0]heptan-2-yl)-2-oxoethyl)-5-(pyrimidin-2-ylethynyl)-1H-indazole-3-carboxamide]: the IC50 is 1000 to 10000 nM. The value for `NC(=O)c1nn(CC(=O)N2CC[C@@H](O)[C@H]2C(=O)NCc2cccc(Cl)c2F)c2ccc(C#Cc3ncccn3)cc12` [Compound 52, 1-(2-((2S,3R)-2-(3-chloro-2-fluorobenzylcarbamoyl)-3-hydroxypyrrolidin-1-yl)-2-oxoethyl)-5-(pyrimidin-2-ylethynyl)-1H-indazole-3-carboxamide] was below 1000 nM; that for `NC(=O)c1nn(CC(=O)N2[C@@H]3C[C@@H]3C[C@H]2C(=O)Nc2cccc(-c3ccccc3Cl)c2F)c2ccc(C#Cc3ncc(F)cn3)cc12` [Compound 53, 1-(2-((1R,3S,5R)-3-(2′-chloro-2-fluorobiphenyl-3-ylcarbamoyl)-2-azabicyclo[3.1.0]hexan-2-yl)-2-oxoethyl)-5-((5-fluoropyrimidin-2-yl)ethynyl)-1H-indazole-3-carboxamide] was below 1000 nM.

In the case of `NC(=O)c1nn(CC(=O)N2[C@@H]3C[C@@H]3C[C@H]2C(=O)Nc2cccc(C3CC3)n2)c2ccc(C#Cc3ncccn3)cc12` [Compound 54, 1-(2-((1R,3S,5R)-3-(6-cyclopropylpyridin-2-ylcarbamoyl)-2-azabicyclo[3.1.0]hexan-2-yl)-2-oxoethyl)-5-(pyrimidin-2-ylethynyl)-1H-indazole-3-carboxamide], the IC50 was below 1000 nM.

In turn, `NC(=O)c1nn(CC(=O)N2C[C@H](F)C[C@H]2C(=O)Nc2cccc(-c3ccccc3Cl)c2F)c2ccc(C#Cc3ncc(F)cn3)cc12` [Compound 55, 1-(2-((2S,4R)-2-(2′-chloro-2-fluorobiphenyl-3-ylcarbamoyl)-4-fluoropyrrolidin-1-yl)-2-oxoethyl)-5-((5-fluoropyrimidin-2-yl)ethynyl)-1H-indazole-3-carboxamide] displayed an IC50 below 1000 nM. With `NC(=O)c1nn(CC(=O)N2[C@@H]3C[C@@H]3C[C@H]2C(=O)Nc2cccc(Cl)n2)c2ccc(C#Cc3ncccn3)cc12` [Compound 56, 1-(2-((1R,3S,5R)-3-(6-chloropyridin-2-ylcarbamoyl)-2-azabicyclo[3.1.0]hexan-2-yl)-2-oxoethyl)-5-(pyrimidin-2-ylethynyl)-1H-indazole-3-carboxamide], the concentration for half-maximal inhibition (IC50) was below 1000 nM. The value for `N#Cc1cccc(NC(=O)[C@@H]2C[C@H]3C[C@H]3N2C(=O)Cn2nc(C(N)=O)c3cc(C#Cc4ncccn4)ccc32)n1` [Compound 57, 1-(2-((1R,3S,5R)-3-(6-cyanopyridin-2-ylcarbamoyl)-2-azabicyclo[3.1.0]hexan-2-yl)-2-oxoethyl)-5-(pyrimidin-2-ylethynyl)-1H-indazole-3-carboxamide] was below 1000 nM.

The molecule `NC(=O)c1nn(CC(=O)N2[C@@H]3C[C@@H]3C[C@H]2C(=O)Nc2cccc(Br)n2)c2ccc(C#Cc3ccc(F)cn3)cc12` [Compound 58, 1-(2-((1R,3S,5R)-3-(6-bromopyridin-2-ylcarbamoyl)-2-azabicyclo[3.1.0]hexan-2-yl)-2-oxoethyl)-5-((5-fluoropyridin-2-yl)ethynyl)-1H-indazole-3-carboxamide] showed an IC50 below 1000 nM. `NC(=O)c1nn(CC(=O)N2[C@@H]3C[C@@H]3C[C@H]2C(=O)Nc2cccc(Br)n2)c2ccc(C#Cc3ccc(C(F)(F)F)cn3)cc12` [Compound 59, 1-(2-((1R,3S,5R)-3-(6-bromopyridin-2-ylcarbamoyl)-2-azabicyclo[3.1.0]hexan-2-yl)-2-oxoethyl)-5-((5-(trifluoromethyl)pyridin-2-yl)ethynyl)-1H-indazole-3-]: the IC50 was below 1000 nM. The molecule `N#Cc1ccc(C#Cc2ccc3c(c2)c(C(N)=O)nn3CC(=O)N2[C@@H]3C[C@@H]3C[C@H]2C(=O)Nc2cccc(Br)n2)nc1` [Compound 60, 1-(2-((1R,3S,5R)-3-(6-bromopyridin-2-ylcarbamoyl)-2-azabicyclo[3.1.0]hexan-2-yl)-2-oxoethyl)-5-((5-cyanopyridin-2-yl)ethynyl)-1H-indazole-3-carboxamide] came in with an IC50 below 1000 nM.

Take `NC(=O)c1nn(CC(=O)N2[C@@H]3C[C@@H]3C[C@H]2C(=O)Nc2cccc(Br)n2)c2ccc(C#Cc3ncc(C(F)(F)F)cn3)cc12` [Compound 61, 1-(2-((1R,3S,5R)-3-(6-bromopyridin-2-ylcarbamoyl)-2-azabicyclo[3.1.0]hexan-2-yl)-2-oxoethyl)-5-((5-(trifluoromethyl)pyrimidin-2-yl)ethynyl)-1H-indazole-3-carboxamide]: the IC50 was below 1000 nM. The value for `NC(=O)c1nn(CC(=O)N2[C@@H]3C[C@@H]3C[C@H]2C(=O)Nc2cccc(F)n2)c2ccc(C#Cc3ncccn3)cc12` [Compound 62, 1-(2-((1R,3S,5R)-3-(6-fluoropyridin-2-ylcarbamoyl)-2-azabicyclo[3.1.0]hexan-2-yl)-2-oxoethyl)-5-(pyrimidin-2-ylethynyl)-1H-indazole-3-carboxamide] was below 1000 nM; that for `NC(=O)c1nn(CC(=O)N2C[C@H](F)C[C@H]2C(=O)Nc2cccc(-c3cc(F)c(F)cc3Cl)c2F)c2ccc(C#Cc3ncc(F)cn3)cc12` [Compound 63, 1-(2-((2S,4R)-2-(2′-chloro-2,4′,5′-trifluorobiphenyl-3-ylcarbamoyl)-4-fluoropyrrolidin-1-yl)-2-oxoethyl)-5-((5-fluoropyrimidin-2-yl)ethynyl)-1H-indazole-3-carboxamide] was below 1000 nM; that for `NC(=O)c1nn(CC(=O)N2[C@@H]3C[C@@H]3C[C@H]2C(=O)Nc2cccc(-c3ccc(F)cc3Cl)c2F)c2ccc(C#Cc3ncc(F)cn3)cc12` [Compound 64, 1-(2-((1R,3S,5R)-3-(2′-chloro-2,4′-difluorobiphenyl-3-ylcarbamoyl)-2-azabicyclo[3.1.0]hexan-2-yl)-2-oxoethyl)-5-((5-fluoropyrimidin-2-yl)ethynyl)-1H-indazole-3-carboxamide] was below 1000 nM. The value for `NC(=O)c1nn(CC(=O)N2[C@@H]3C[C@@H]3C[C@H]2C(=O)Nc2cccc(Br)n2)c2ccc(C#Cc3cc(F)ccn3)cc12` [Compound 65, 1-(2-((1R,3S,5R)-3-(6-bromopyridin-2-ylcarbamoyl)-2-azabicyclo[3.1.0]hexan-2-yl)-2-oxoethyl)-5-((4-fluoropyridin-2-yl)ethynyl)-1H-indazole-3-carboxamide] was below 1000 nM; that for `NC(=O)c1nn(CC(=O)N2CCS[C@H]2C(=O)Nc2cccc(-c3ccccc3Cl)c2F)c2ccc(C#Cc3ncccn3)cc12` [Compound 66, (S)-3-(2-(3-carbamoyl-5-(pyrimidin-2-ylethynyl)-1H-indazol-1-yl)acetyl)-N-(2′-chloro-2-fluorobiphenyl-3-yl)thiazolidine-2-carboxamide] was below 1000 nM. The result for `NC(=O)c1nn(CC(=O)N2C[C@H](F)C[C@H]2C(=O)NCc2cccc(Cl)c2F)c2cnc(C#Cc3ccccc3)cc12` [Compound 67, 1-(2-((2S,4R)-2-(3-chloro-2-fluorobenzylcarbamoyl)-4-fluoropyrrolidin-1-yl)-2-oxoethyl)-5-(phenylethynyl)-1H-pyrazolo[3,4-c]pyridine-3-carboxamide] reads below 1000 nM. As for `NC(=O)c1nn(CC(=O)N2C[C@H](F)C[C@H]2C(=O)Nc2cncc(Br)c2)c2ccc(C#Cc3ncc(F)cn3)cc12` [Compound 68, 1-(2-((2S,4R)-2-(5-bromopyridin-3-ylcarbamoyl)-4-fluoropyrrolidin-1-yl)-2-oxoethyl)-5-((5-fluoropyrimidin-2-yl)ethynyl)-1H-indazole-3-carboxamide], the IC50 was below 1000 nM. The value for `NC(=O)c1nn(CC(=O)N2C[C@H](F)C[C@H]2C(=O)Nc2cccc(-c3cncnc3)c2F)c2ccc(C#Cc3ncccn3)cc12` [Compound 69, 1-(2-((2S,4R)-4-fluoro-2-(2-fluoro-3-(pyrimidin-5-yl)phenylcarbamoyl)pyrrolidin-1-yl)-2-oxoethyl)-5-(pyrimidin-2-ylethynyl)-1H-indazole-3-carboxamide] was below 1000 nM; that for `NC(=O)c1nn(CC(=O)N2C[C@H](F)C[C@H]2C(=O)Nc2cncc(C(F)(F)F)n2)c2ccc(C#Cc3ncc(F)cn3)cc12` [Compound 70, 1-(2-((2S,4R)-4-fluoro-2-(6-(trifluoromethyl)pyrazin-2-ylcarbamoyl)pyrrolidin-1-yl)-2-oxoethyl)-5-((5-fluoropyrimidin-2-yl)ethynyl)-1H-indazole-3-carboxamide] was below 1000 nM. The value for `NC(=O)c1nn(CC(=O)N2C[C@H](F)C[C@H]2C(=O)Nc2ccc3cccc(Cl)c3n2)c2ccc(C#Cc3ncc(F)cn3)cc12` [Compound 71, 1-(2-((2S,4R)-2-(8-chloroquinolin-2-ylcarbamoyl)-4-fluoropyrrolidin-1-yl)-2-oxoethyl)-5-((5-fluoropyrimidin-2-yl)ethynyl)-1H-indazole-3-carboxamide] was below 1000 nM; that for `NC(=O)c1nn(CC(=O)N2[C@@H]3C[C@@H]3C[C@H]2C(=O)Nc2ccn(CC(F)(F)F)n2)c2ccc(C#Cc3ncc(F)cn3)cc12` [Compound 72, 5-((5-fluoropyrimidin-2-yl)ethynyl)-1-(2-oxo-2-((1R,3S,5R)-3-(1-(2,2,2-trifluoroethyl)-1H-pyrazol-3-ylcarbamoyl)-2-azabicyclo[3.1.0]hexan-2-yl)ethyl)-1H-indazole-3-carboxamide] was below 1000 nM.

The molecule `NC(=O)c1nn(CC(=O)N2C[C@H](F)C[C@H]2C(=O)Nc2cccc(-c3ccccc3Cl)c2F)c2ccc(C#Cc3cccnn3)cc12` [Compound 73, 1-(2-((2S,4R)-2-(2′-chloro-2-fluorobiphenyl-3-ylcarbamoyl)-4-fluoropyrrolidin-1-yl)-2-oxoethyl)-5-(pyridazin-3-ylethynyl)-1H-indazole-3-carboxamide] gave an IC50 below 1000 nM.

For orientation: IC50 means the midpoint of a concentration-inhibition curve.
